{"source": "patent US5424456A", "about": "“N-arylalkylderivatives of 2-aminomethyl-2,3-dihydro-1,4-benzodioxine and the process of preparation thereof” (Vyzkumny Ustav Pro Farmacii A Biochemii s.p., priority 1991, dated 1995)", "key": {"blood pressure": {"test_system": "blood pressure", "test": "Hypotensive activity, pentobarbital anaesthesized rabbits", "assay_type": "in vivo, rabbit", "excerpt": "a) The blood pressure of pentobarbital anaesthesized rabbits was registered invasively in arteria femoralis. The average decrease in systolic (SBP) and diastolic (DBP) blood pressure expressed in per cents of the starting blood pressure level after intravenous and oral administration is shown in Tables 3 and 4."}, "calcium channel": {"target": "T1, calcium channel (Rattus norvegicus, UniProt P22002)", "T1 construct": "helically cut rat aortic strip; from tissue; host or cells: rat aorta (helically cut strip)", "T1 sequence (P22002 whole entry)": "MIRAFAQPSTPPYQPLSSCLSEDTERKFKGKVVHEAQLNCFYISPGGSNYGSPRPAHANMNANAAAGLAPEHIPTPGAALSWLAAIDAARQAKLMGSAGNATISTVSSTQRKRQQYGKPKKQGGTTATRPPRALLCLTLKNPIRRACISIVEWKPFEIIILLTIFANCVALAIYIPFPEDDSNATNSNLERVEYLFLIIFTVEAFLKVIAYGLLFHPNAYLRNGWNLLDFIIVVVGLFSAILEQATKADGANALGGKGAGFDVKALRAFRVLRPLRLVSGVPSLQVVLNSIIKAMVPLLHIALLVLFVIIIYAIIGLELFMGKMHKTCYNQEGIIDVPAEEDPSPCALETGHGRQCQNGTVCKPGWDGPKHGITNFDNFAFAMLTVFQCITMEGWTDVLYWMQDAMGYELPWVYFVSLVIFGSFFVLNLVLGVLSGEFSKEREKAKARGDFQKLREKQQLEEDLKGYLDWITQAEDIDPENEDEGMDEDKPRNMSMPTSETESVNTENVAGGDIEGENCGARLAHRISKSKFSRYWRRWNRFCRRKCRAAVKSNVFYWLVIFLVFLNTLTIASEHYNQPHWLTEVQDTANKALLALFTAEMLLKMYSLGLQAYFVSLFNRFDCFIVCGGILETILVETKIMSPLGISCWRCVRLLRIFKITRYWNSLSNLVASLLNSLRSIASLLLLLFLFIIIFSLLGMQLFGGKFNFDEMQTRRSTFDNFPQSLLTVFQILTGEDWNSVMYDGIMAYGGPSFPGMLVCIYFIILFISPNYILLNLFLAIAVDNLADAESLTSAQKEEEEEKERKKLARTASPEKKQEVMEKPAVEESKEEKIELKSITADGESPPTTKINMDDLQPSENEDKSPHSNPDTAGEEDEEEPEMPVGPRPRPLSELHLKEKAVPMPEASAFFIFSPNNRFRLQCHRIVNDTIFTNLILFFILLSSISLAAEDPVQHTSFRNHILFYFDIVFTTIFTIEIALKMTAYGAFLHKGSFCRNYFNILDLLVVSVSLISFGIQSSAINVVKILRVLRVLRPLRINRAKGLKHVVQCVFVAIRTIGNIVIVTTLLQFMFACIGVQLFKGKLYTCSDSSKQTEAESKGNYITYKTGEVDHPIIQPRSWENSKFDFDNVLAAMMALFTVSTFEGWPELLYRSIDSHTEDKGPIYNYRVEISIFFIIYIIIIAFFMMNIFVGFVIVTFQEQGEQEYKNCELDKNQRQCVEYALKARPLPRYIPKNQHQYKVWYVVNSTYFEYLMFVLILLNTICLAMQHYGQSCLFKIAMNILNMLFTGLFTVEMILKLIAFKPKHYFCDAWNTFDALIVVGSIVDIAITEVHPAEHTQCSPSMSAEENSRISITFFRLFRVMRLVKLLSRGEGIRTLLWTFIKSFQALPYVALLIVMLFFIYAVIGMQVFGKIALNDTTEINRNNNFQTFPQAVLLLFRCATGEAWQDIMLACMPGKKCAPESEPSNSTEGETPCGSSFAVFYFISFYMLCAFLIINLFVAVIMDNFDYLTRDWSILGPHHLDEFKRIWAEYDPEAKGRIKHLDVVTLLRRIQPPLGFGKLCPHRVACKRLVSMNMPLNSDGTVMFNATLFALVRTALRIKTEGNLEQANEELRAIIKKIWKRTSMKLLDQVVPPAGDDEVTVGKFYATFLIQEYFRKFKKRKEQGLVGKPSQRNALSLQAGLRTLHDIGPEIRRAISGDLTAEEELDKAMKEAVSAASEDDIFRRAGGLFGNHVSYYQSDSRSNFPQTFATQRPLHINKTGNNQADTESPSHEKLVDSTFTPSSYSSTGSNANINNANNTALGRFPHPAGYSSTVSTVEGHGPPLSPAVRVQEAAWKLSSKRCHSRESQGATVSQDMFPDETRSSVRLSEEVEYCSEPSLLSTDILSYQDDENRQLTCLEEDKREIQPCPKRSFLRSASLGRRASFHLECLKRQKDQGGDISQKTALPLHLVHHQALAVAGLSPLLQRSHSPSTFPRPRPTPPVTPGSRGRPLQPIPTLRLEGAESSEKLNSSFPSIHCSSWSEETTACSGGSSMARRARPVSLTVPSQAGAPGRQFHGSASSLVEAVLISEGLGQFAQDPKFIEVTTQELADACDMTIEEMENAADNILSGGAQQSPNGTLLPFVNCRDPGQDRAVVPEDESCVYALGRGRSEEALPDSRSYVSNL", "T1 sequence (P54290 25-1091 partner)": "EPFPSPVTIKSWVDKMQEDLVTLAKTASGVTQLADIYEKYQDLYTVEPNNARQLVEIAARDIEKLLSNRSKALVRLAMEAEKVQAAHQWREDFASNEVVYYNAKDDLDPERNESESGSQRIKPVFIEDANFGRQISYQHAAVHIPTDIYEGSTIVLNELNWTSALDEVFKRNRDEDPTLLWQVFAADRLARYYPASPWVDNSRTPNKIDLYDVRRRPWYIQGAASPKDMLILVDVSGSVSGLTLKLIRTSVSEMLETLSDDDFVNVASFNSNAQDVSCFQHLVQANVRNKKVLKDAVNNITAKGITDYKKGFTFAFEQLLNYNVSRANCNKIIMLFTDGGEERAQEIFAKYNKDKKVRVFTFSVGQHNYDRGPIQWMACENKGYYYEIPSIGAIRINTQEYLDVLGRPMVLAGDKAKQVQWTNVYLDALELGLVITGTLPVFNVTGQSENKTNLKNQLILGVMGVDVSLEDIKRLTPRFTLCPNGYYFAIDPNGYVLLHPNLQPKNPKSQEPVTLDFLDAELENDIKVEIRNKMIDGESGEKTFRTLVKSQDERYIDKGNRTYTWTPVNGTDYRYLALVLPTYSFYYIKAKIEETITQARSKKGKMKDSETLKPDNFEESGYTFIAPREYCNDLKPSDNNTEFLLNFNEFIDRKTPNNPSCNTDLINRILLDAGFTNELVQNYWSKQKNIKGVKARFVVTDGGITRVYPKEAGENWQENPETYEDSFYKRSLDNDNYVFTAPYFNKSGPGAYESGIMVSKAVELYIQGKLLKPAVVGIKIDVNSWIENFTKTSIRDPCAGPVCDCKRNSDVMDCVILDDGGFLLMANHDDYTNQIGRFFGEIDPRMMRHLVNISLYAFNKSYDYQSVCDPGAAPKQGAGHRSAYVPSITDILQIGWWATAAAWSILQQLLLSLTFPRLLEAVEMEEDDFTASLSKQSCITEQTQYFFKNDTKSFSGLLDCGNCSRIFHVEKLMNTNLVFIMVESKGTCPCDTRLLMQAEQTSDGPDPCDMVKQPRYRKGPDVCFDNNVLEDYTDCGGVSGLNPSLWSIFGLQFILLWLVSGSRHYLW", "test": "Calcium channel blocking activity, K+ depolarization-induced contraction of helically cut rat aortic strip", "conditions": "Krebs-Henselheit solution, 37° C., cumulative doses, read-out: IC50 (50% decrease of contraction of the aortic strip)", "method": "The calcium channel blocking activity of the compounds was tested using a helically cut rat aortic strip in Krebs-Henselheit solution at 37° C., bubbled with a mixture of 95% O2 and 5% CO2. The isometrically registered contractions were induced by K^(+). depolarization. The test compounds were applied in a cumulative doses and the vasodilating activity thereof was expressed in calculated concentration of the test compound, causing 50% decrease of contraction of the aortic strip (IC50)."}, "intraocular pressure": {"test_system": "intraocular pressure", "test": "Effect on the intraocular pressure", "assay_type": "in vivo, rabbit", "conditions": "rabbits, topical intraocular administration"}, "α-adrenergic [1]": {"test_system": "α-adrenergic", "test": "α-adrenergic blocking activity, postdecapitation muscular contractions in rats", "assay_type": "in vivo, rat", "conditions": "i.v., 4.2 g/kg (so in the source), 30 minutes prior to decapitation", "method": "b) The α-adrenergic blocking activity of compounds VUFB 17951 and VUFB 17959 was also shown in the test of influencing the postdecapitation muscular contractions in rats. The test compounds were administered intravenously in the dose of 4.6 mg/kg for VUFB 17951 and […] for VUFB 17959."}, "α-adrenergic [2]": {"target": "T2, α-adrenergic (Rattus norvegicus, UniProt P23944)", "T2 construct": "helically cut rat aortic strip; from tissue; host or cells: rat aorta (helically cut strip)", "T2 sequence (P23944 1-561)": "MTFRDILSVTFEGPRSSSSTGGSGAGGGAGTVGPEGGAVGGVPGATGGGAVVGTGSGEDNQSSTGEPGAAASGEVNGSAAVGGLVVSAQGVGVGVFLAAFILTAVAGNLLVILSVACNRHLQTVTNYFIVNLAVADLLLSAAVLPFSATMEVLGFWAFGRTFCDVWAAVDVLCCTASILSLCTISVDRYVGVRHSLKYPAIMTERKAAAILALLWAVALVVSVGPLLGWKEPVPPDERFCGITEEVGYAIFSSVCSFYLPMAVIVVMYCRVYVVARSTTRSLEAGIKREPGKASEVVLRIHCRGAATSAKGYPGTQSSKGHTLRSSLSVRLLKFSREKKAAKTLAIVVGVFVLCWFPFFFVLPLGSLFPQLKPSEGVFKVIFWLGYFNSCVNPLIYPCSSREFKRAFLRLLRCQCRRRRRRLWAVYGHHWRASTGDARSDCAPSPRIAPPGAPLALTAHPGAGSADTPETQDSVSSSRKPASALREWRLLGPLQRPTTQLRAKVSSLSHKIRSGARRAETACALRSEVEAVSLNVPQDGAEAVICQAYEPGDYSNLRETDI", "test": "α-adrenergic blocking activity, norepinephrine-induced contraction of helically cut rat aortic strip", "conditions": "37° C., cumulative doses, read-out: IC50 (concentration causing 50% relaxation)", "method": "a) The α-adrenergic blocking activity of the compounds was tested using a helically cut rat aortic strip in a Krebs-Henselheit solution at 37° C., bubbled with a mixture of 95% O2 and 5% CO2. Norepinephrine induced contractions were detected isometrically. The compounds were added in cumulative doses and the relaxing activity was expressed in per cents of the maximum norepinephrine contraction."}, "[3]": {"test_system": "rat peripheral venous thrombosis", "test": "Antithrombotic activity, rat peripheral venous thrombosis in closed abdominal part of vena cava", "assay_type": "in vivo", "conditions": "rats, read-out: statistically significant effective dose (mass of thrombi)", "method": "The antithrombotic activity of the test compounds was established using the model of rat peripheral venous thrombosis in a closed abdominal part of vena cava. The thrombus was induced by intravenous administration of hypotonic solution of sodium chloride. The thrombus was freed 10 minutes after induction and weighted. The mass of thrombi in control animals was compared to the mass of thrombi of animals administered by the test compound. The statistically significant effective dose for compound VUFB 17951 was 0.5 mg/kg intravenously and 5 mg/kg orally and for the compound VUFB 17959 0.25 mg/kg and 1.0 mg/kg, respectively. The corresponding dose of a standard (Cilostazol, generic name, Merck index, 11th Edition, 2277) was 25 mg/kg orally."}, "[4]": {"conditions": "p.o., 10.0 mg/kg, value 1 of 5 (heads 30/60/120/180 min)"}, "[5]": {"conditions": "p.o., 10.0 mg/kg, value 2 of 5 (heads 30/60/120/180 min)"}, "[6]": {"conditions": "p.o., 10.0 mg/kg, value 3 of 5 (heads 30/60/120/180 min)"}, "[7]": {"conditions": "p.o., 10.0 mg/kg, value 4 of 5 (heads 30/60/120/180 min)"}, "[8]": {"conditions": "p.o., 10.0 mg/kg, value 5 of 5 (heads 30/60/120/180 min)"}, "[9]": {"conditions": "p.o., 50.0 mg/kg, value 1 of 5 (heads 30/60/120/180 min)"}, "[10]": {"conditions": "p.o., 50.0 mg/kg, value 2 of 5 (heads 30/60/120/180 min)"}, "[11]": {"conditions": "p.o., 50.0 mg/kg, value 3 of 5 (heads 30/60/120/180 min)"}, "[12]": {"conditions": "p.o., 50.0 mg/kg, value 4 of 5 (heads 30/60/120/180 min)"}, "[13]": {"conditions": "p.o., 50.0 mg/kg, value 5 of 5 (heads 30/60/120/180 min)"}}, "note": "pIC50: −log10 of the molar value. Like-named read-outs stand apart in the source and are kept apart here."}
{"smiles": "Cc1ccccc1C(C#N)(CCCNCC1COc2ccccc2O1)C(C)C", "note": "(racemic) [VUFB 17959, 5-(2,3-dihydro-1,4-benzodioxin-2-ylmethylamino)-2-isopropyl-2-(2-methylphenyl) valeronitrile]", "values": [{"measurement": "decrease in diastolic blood pressure (DBP)", "setting": "blood pressure; i.v., 1.0 mg/kg, 1 min", "result": -51, "unit": "per cents"}, {"measurement": "decrease in systolic blood pressure (SBP)", "setting": "blood pressure; i.v., 1.0 mg/kg, 1 min", "result": -47, "unit": "per cents"}, {"measurement": "decrease in diastolic blood pressure (DBP)", "setting": "blood pressure; i.v., 1.0 mg/kg, 5 min", "result": -22, "unit": "per cents"}, {"measurement": "decrease in systolic blood pressure (SBP)", "setting": "blood pressure; i.v., 1.0 mg/kg, 5 min", "result": -23, "unit": "per cents"}, {"measurement": "decrease in diastolic blood pressure (DBP)", "setting": "blood pressure; i.v., 1.0 mg/kg, 30 min", "result": -21, "unit": "per cents"}, {"measurement": "decrease in systolic blood pressure (SBP)", "setting": "blood pressure; i.v., 1.0 mg/kg, 30 min", "result": -22, "unit": "per cents"}, {"measurement": "decrease in diastolic blood pressure (DBP)", "setting": "blood pressure; i.v., 1.0 mg/kg, 60 min", "result": -25, "unit": "per cents"}, {"measurement": "decrease in systolic blood pressure (SBP)", "setting": "blood pressure; i.v., 1.0 mg/kg, 60 min", "result": -14, "unit": "per cents"}, {"measurement": "decrease in diastolic blood pressure (DBP)", "setting": "blood pressure; i.v., 1.0 mg/kg, 180 min", "result": -18, "unit": "per cents"}, {"measurement": "decrease in systolic blood pressure (SBP)", "setting": "blood pressure; i.v., 1.0 mg/kg, 180 min", "result": -8, "unit": "per cents"}, {"measurement": "decrease in diastolic blood pressure (DBP)", "setting": "blood pressure; i.v., 5.0 mg/kg, 1 min", "result": -69, "unit": "per cents"}, {"measurement": "decrease in systolic blood pressure (SBP)", "setting": "blood pressure; i.v., 5.0 mg/kg, 1 min", "result": -60, "unit": "per cents"}, {"measurement": "decrease in diastolic blood pressure (DBP)", "setting": "blood pressure; i.v., 5.0 mg/kg, 5 min", "result": -39, "unit": "per cents"}, {"measurement": "decrease in systolic blood pressure (SBP)", "setting": "blood pressure; i.v., 5.0 mg/kg, 5 min", "result": -35, "unit": "per cents"}, {"measurement": "decrease in diastolic blood pressure (DBP)", "setting": "blood pressure; i.v., 5.0 mg/kg, 30 min", "result": -31, "unit": "per cents"}, {"measurement": "decrease in systolic blood pressure (SBP)", "setting": "blood pressure; i.v., 5.0 mg/kg, 30 min", "result": -26, "unit": "per cents"}, {"measurement": "decrease in diastolic blood pressure (DBP)", "setting": "blood pressure; i.v., 5.0 mg/kg, 60 min", "result": -29, "unit": "per cents"}, {"measurement": "decrease in systolic blood pressure (SBP)", "setting": "blood pressure; i.v., 5.0 mg/kg, 60 min", "result": -27, "unit": "per cents"}, {"measurement": "decrease in diastolic blood pressure (DBP)", "setting": "blood pressure; i.v., 5.0 mg/kg, 180 min", "result": -33, "unit": "per cents"}, {"measurement": "decrease in systolic blood pressure (SBP)", "setting": "blood pressure; i.v., 5.0 mg/kg, 180 min", "result": -25, "unit": "per cents"}, {"measurement": "decrease in diastolic blood pressure (DBP)", "setting": "blood pressure; [4]", "result": -2, "unit": "per cents"}, {"measurement": "decrease in systolic blood pressure (SBP)", "setting": "blood pressure; [4]", "result": -2, "unit": "per cents"}, {"measurement": "decrease in diastolic blood pressure (DBP)", "setting": "blood pressure; [5]", "result": 0, "unit": "per cents"}, {"measurement": "decrease in systolic blood pressure (SBP)", "setting": "blood pressure; [5]", "result": -3, "unit": "per cents"}, {"measurement": "decrease in diastolic blood pressure (DBP)", "setting": "blood pressure; [6]", "result": -3, "unit": "per cents"}, {"measurement": "decrease in systolic blood pressure (SBP)", "setting": "blood pressure; [6]", "result": -4, "unit": "per cents"}, {"measurement": "decrease in diastolic blood pressure (DBP)", "setting": "blood pressure; [7]", "result": -8, "unit": "per cents"}, {"measurement": "decrease in systolic blood pressure (SBP)", "setting": "blood pressure; [7]", "result": -1, "unit": "per cents"}, {"measurement": "decrease in diastolic blood pressure (DBP)", "setting": "blood pressure; [8]", "result": -10, "unit": "per cents"}, {"measurement": "decrease in systolic blood pressure (SBP)", "setting": "blood pressure; [8]", "result": "+3 per cents"}, {"measurement": "decrease in diastolic blood pressure (DBP)", "setting": "blood pressure; [9]", "result": -6, "unit": "per cents"}, {"measurement": "decrease in systolic blood pressure (SBP)", "setting": "blood pressure; [9]", "result": -9, "unit": "per cents"}, {"measurement": "decrease in diastolic blood pressure (DBP)", "setting": "blood pressure; [10]", "result": -12, "unit": "per cents"}, {"measurement": "decrease in systolic blood pressure (SBP)", "setting": "blood pressure; [10]", "result": -18, "unit": "per cents"}, {"measurement": "decrease in diastolic blood pressure (DBP)", "setting": "blood pressure; [11]", "result": -18, "unit": "per cents"}, {"measurement": "decrease in systolic blood pressure (SBP)", "setting": "blood pressure; [11]", "result": -26, "unit": "per cents"}, {"measurement": "decrease in diastolic blood pressure (DBP)", "setting": "blood pressure; [12]", "result": -18, "unit": "per cents"}, {"measurement": "decrease in systolic blood pressure (SBP)", "setting": "blood pressure; [12]", "result": -29, "unit": "per cents"}, {"measurement": "decrease in diastolic blood pressure (DBP)", "setting": "blood pressure; [13]", "result": -18, "unit": "per cents"}, {"measurement": "decrease in systolic blood pressure (SBP)", "setting": "blood pressure; [13]", "result": -31, "unit": "per cents"}, {"measurement": "pIC50", "setting": "calcium channel", "result": 4.80}, {"measurement": "lowering of the intraocular pressure", "setting": "intraocular pressure", "result": "lowered significantly the intraocular pressure"}, {"measurement": "decrease in number of postdecapitation contractions", "setting": "α-adrenergic [1]", "result": "highly significant decrease in number of postdecapitation contractions"}, {"measurement": "pIC50", "setting": "α-adrenergic [2]", "result": 4.60}, {"measurement": "minimal effective dose", "setting": "[3]; iv, intravenously", "result": 0.25, "unit": "mg/kg"}, {"measurement": "minimal effective dose", "setting": "[3]; po, orally", "result": 1, "unit": "mg/kg"}]}
